≈ marks a conversion by molar mass, not a printed value. Calls of active or inactive are those of the source. The rule behind the calls is not given here.
Assays:
[1] = system: Klebsiella pneumoniae; experiment: Antibacterial activity Klebsiella pneumoniae MTCC 618 by agar well method; type: functional
[2] = system: Bacillus subtilis; experiment: Antibacterial activity Bacillus subtilis MTCC 441 by agar well method; type: functional
[3] = system: Staphylococcus aureus; experiment: Antibacterial activity Staphylococcus aureus MTCC 96 by agar well method; type: functional
[4] = system: Staphylococcus epidermidis; experiment: Antibacterial activity Staphylococcus epidermidis MTCC 9041 by agar well method; type: functional
[5] = system: Escherichia coli; experiment: Antibacterial activity Escherichia coli MTCC 443 by agar well method; type: functional
[6] = system: Pseudomonas aeruginosa; experiment: Antibacterial activity Pseudomonas aeruginosa MTCC 1688 by agar well method; type: functional
[7] = system: SK-OV-3; experiment: Cytotoxicity against human SKOV3 cells incubated for 24 hrs by MTT asasy; type: functional, cell-based
[8] = system: HeLa; experiment: Cytotoxicity against human HeLa cells incubated for 24 hrs by MTT asasy; type: functional, cell-based
[9] = system: MDA-MB-231; experiment: Cytotoxicity against human MDA-MB-231 cells incubated for 24 hrs by MTT asasy; type: functional, cell-based
[10] = system: DU-145; experiment: Cytotoxicity against human DU145 cells incubated for 24 hrs by MTT asasy; type: functional, cell-based
[11] = system: CHO-K1; experiment: Cytotoxicity against CHOK1 cells incubated for 24 hrs by MTT asasy; type: cell-based, Cricetulus griseus
[12] = Homo sapiens, HeLa, 24 h, read-out: IC50
[13] = Homo sapiens, MDA-MB-231, 24 h, read-out: IC50
[14] = Cricetulus griseus, CHO-K1, 24 h, read-out: IC50
[15] = Homo sapiens, DU-145, 24 h, read-out: IC50
[16] = Homo sapiens, SK-OV-3, 24 h, read-out: IC50

Row | SMILES | MIC [1] | MIC [2] | MIC [3] | MIC [4] | MIC [5] | MIC [6] | IC50 ([7]; sk-ov-3) | IC50 [8, 12] [µM] | IC50 [9, 13] [µM] | IC50 ([10]; du-145) | IC50 ([11]; cho-k1) | IC50 [11, 14] [µM] | IC50 [10, 15] [µM] | IC50 ([8]; hela) | IC50 ([9]; mda-mb-231) | IC50 [7, 16] [µM]
1 | C=CCCCCCCCCC(=O)Nc1nnc(S[C@@H]2O[C@H](CO)[C@H](O)[C@H](O)[C@H]2O)s1 | > 150 µg/mL | > 150 µg/mL | > 150 µg/mL | > 150 µg/mL | > 150 µg/mL | > 150 µg/mL | Not Active | 58.3 | 80.6 | Not Active | Not Active | – | – | – | – | –
2 | CCCCCCCC(=O)Nc1nnc(S[C@@H]2O[C@H](COC(C)=O)[C@H](OC(C)=O)[C@H](OC(C)=O)[C@H]2OC(C)=O)s1 | inactive | inactive | inactive | inactive | inactive | inactive | Not Active | 43.6 | 18.9 | Not Active | – | 19.2 | – | – | – | –
3 | CCCCCCCCCC(=O)Nc1nnc(S[C@@H]2O[C@H](COC(C)=O)[C@H](OC(C)=O)[C@H](OC(C)=O)[C@H]2OC(C)=O)s1 | inactive | inactive | inactive | inactive | inactive | inactive | Not Active | 44.9 | 19.2 | – | – | 19.4 | 34.4 | – | – | –
4 | CCCCCCCCCCCCCCCC(=O)Nc1nnc(S[C@@H]2O[C@H](COC(C)=O)[C@H](OC(C)=O)[C@H](OC(C)=O)[C@H]2OC(C)=O)s1 | inactive | inactive | inactive | inactive | inactive | inactive | Not Active | 58.3 | 25.4 | – | – | 90.4 | 30.1 | – | – | –
5 | CN[C@@H]1[C@H](O[C@H]2[C@H](O[C@H]3[C@H](O)[C@@H](O)[C@H](N=C(N)N)[C@@H](O)[C@@H]3N=C(N)N)O[C@@H](C)[C@]2(O)C=O)O[C@@H](CO)[C@H](O)[C@H]1O [STREPTOMYCIN] | 3.12 µg/mL (≈ 5.37 µM) | 6.25 µg/mL (≈ 10.7 µM) | 6.25 µg/mL (≈ 10.7 µM) | 3.12 µg/mL (≈ 5.37 µM) | 6.25 µg/mL (≈ 10.7 µM) | 1.56 µg/mL (≈ 2.69 µM) | – | – | – | – | – | – | – | – | – | –
6 | CO[C@@]12[C@H](COC(N)=O)C3=C(C(=O)C(C)=C(N)C3=O)N1C[C@@H]1N[C@@H]12 [MITOMYCIN] | – | – | – | – | – | – | Not Active | – | – | Not Active | – | 13.2 to 13.4 | – | Not Active | Not Active | –
7 | CCCCCCCC/C=C\CCCCCCCC(=O)Nc1nnc(S[C@@H]2O[C@H](COC(C)=O)[C@H](OC(C)=O)[C@H](OC(C)=O)[C@H]2OC(C)=O)s1 | inactive | inactive | inactive | inactive | inactive | inactive | Not Active | 54.4 | 23.6 | – | – | 26.3 | 42 | – | – | –
8 | CC1(C)S[C@@H]2[C@H](NC(=O)Cc3ccccc3)C(=O)N2[C@H]1C(=O)O [PENICILLIN G] | 6.25 µg/mL (≈ 18.7 µM) | 1.56 µg/mL (≈ 4.67 µM) | 1.56 µg/mL (≈ 4.67 µM) | 3.12 µg/mL (≈ 9.35 µM) | 12.5 µg/mL (≈ 37.4 µM) | 12.5 µg/mL (≈ 37.4 µM) | – | – | – | – | – | – | – | – | – | –
9 | C=CCCCCCCCCC(=O)Nc1nnc(S[C@@H]2O[C@H](COC(C)=O)[C@H](OC(C)=O)[C@H](OC(C)=O)[C@H]2OC(C)=O)s1 | inactive | inactive | inactive | inactive | inactive | inactive | Not Active | 77.7 | 60.9 | – | – | 16.3 | 22.9 | – | – | –
10 | CCCCCCCC/C=C\CCCCCCCCCCCC(=O)Nc1nnc(S[C@@H]2O[C@H](COC(C)=O)[C@H](OC(C)=O)[C@H](OC(C)=O)[C@H]2OC(C)=O)s1 | inactive | inactive | inactive | inactive | inactive | inactive | Not Active | 58.5 | 25.3 | – | – | 25.2 | 28.4 | – | – | –
11 | CCCCCCCCCCCC(=O)Nc1nnc(S[C@@H]2O[C@H](COC(C)=O)[C@H](OC(C)=O)[C@H](OC(C)=O)[C@H]2OC(C)=O)s1 | inactive | inactive | inactive | inactive | inactive | inactive | Not Active | 51.9 | 26.7 | – | – | 27.7 | 16.9 | – | – | –
12 | CCCCCCCCCC(=O)Nc1nnc(S[C@@H]2O[C@H](CO)[C@H](O)[C@H](O)[C@H]2O)s1 | > 150 µg/mL | > 150 µg/mL | > 150 µg/mL | > 150 µg/mL | > 150 µg/mL | > 150 µg/mL | Not Active | 25.9 | 53.1 | Not Active | Not Active | – | – | – | – | –
13 | CCCCCCCC(=O)Nc1nnc(S[C@@H]2O[C@H](CO)[C@H](O)[C@H](O)[C@H]2O)s1 | > 150 µg/mL | > 150 µg/mL | > 150 µg/mL | > 150 µg/mL | > 150 µg/mL | > 150 µg/mL | – | 50.8 | 30.8 | Not Active | – | 60.1 | – | – | – | 56
14 | CCCCCC(=O)Nc1nnc(S[C@@H]2O[C@H](CO)[C@H](O)[C@H](O)[C@H]2O)s1 | > 150 µg/mL | > 150 µg/mL | > 150 µg/mL | > 150 µg/mL | > 150 µg/mL | > 150 µg/mL | Not Active | 45.6 | 28.7 | Not Active | Not Active | – | – | – | – | –
15 | CCCCCCCC/C=C\CCCCCCCC(=O)Nc1nnc(S[C@@H]2O[C@H](CO)[C@H](O)[C@H](O)[C@H]2O)s1 | > 150 µg/mL | > 150 µg/mL | > 150 µg/mL | > 150 µg/mL | > 150 µg/mL | > 150 µg/mL | Not Active | 8.8 | 43.6 | Not Active | Not Active | – | – | – | – | –
16 | CCCCCCCCCCCCCC(=O)Nc1nnc(S[C@@H]2O[C@H](CO)[C@H](O)[C@H](O)[C@H]2O)s1 | 25 µg/mL (≈ 49.4 µM) | 50 µg/mL (≈ 98.9 µM) | > 150 µg/mL | > 150 µg/mL | > 150 µg/mL | > 150 µg/mL | Not Active | 31 | 33.3 | Not Active | Not Active | – | – | – | – | –
17 | CCCCCCCC/C=C\CCCCCCCCCCCC(=O)Nc1nnc(S[C@@H]2O[C@H](CO)[C@H](O)[C@H](O)[C@H]2O)s1 | > 150 µg/mL | > 150 µg/mL | > 150 µg/mL | > 150 µg/mL | > 150 µg/mL | > 150 µg/mL | Not Active | 13.5 | 70.4 | Not Active | Not Active | – | – | – | – | –
18 | COc1cccc2c1C(=O)c1c(O)c3c(c(O)c1C2=O)C[C@@](O)(C(=O)CO)C[C@@H]3O[C@H]1C[C@H](N)[C@H](O)[C@H](C)O1 [DOXORUBICIN] | – | – | – | – | – | – | – | 0.7 | 0.7 to 0.8 | – | Not Active | – | 0.7 to 0.8 | – | – | 0.7 to 0.8
